Experiments:
Assay in all cases: Weeding effect in post-emergence stage
Format in all cases: in vivo
Setaria viridis = settings: for Weeding effect in post-emergence stage, Setaria viridis: level of fresh weight growth control rate; for Weeding effect in post-emergence stage, Setaria viridis (level): fresh weight control rate level
Method in brief: (§1)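 Weeds were treated post-emergence at 2-3 leaves with compound doses from 7.5 up to 500 g/ha, formulated in acetone–Tween 80 with methyl oleate synergist. Efficacy was assessed as growth control after 3 weeks.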

Digitaria sanguinalis = settings: for Weeding effect in post-emergence stage, Digitaria sanguinalis: level of fresh weight growth control rate; for Weeding effect in post-emergence stage, Digitaria sanguinalis (level): fresh weight control rate level
Method in brief: as §1

Eleusine indica = settings: for Weeding effect in post-emergence stage, Eleusine indica: level of fresh weight growth control rate; for Weeding effect in post-emergence stage, Eleusine indica (level): fresh weight control rate level
Method in brief: as §1

Abutilon theophrasti = settings: for Weeding effect in post-emergence stage, Abutilon theophrasti: level of fresh weight growth control rate; for Weeding effect in post-emergence stage, Abutilon theophrasti (level): fresh weight control rate level
Method in brief: as §1

Alopecurus japonicus = settings: for Weeding effect in post-emergence stage, Alopecurus japonicus: level of fresh weight growth control rate; for Weeding effect in post-emergence stage, Alopecurus japonicus (level): fresh weight control rate level
Method in brief: as §1

Echinochloa crusgalli = settings: for Weeding effect in post-emergence stage, Echinochloa crusgalli: level of fresh weight growth control rate; for Weeding effect in post-emergence stage, Echinochloa crusgalli (level): fresh weight control rate level
Method in brief: as §1

CC(O/N=C/c1cc(-n2c(=O)cc(C(F)(F)F)n(C)c2=O)c(F)cc1Cl)C(=O)OCCC#N (racemic) [Compound 227]
Weeding effect in post-emergence stage, Setaria viridis (Setaria viridis; Dose 15 g/ha): 5 (Level 5: growth control rate is above 85%) | Weeding effect in post-emergence stage, Digitaria sanguinalis (Digitaria sanguinalis; Dose 15 g/ha): 5 (Level 5: growth control rate is above 85%) | Weeding effect in post-emergence stage, Eleusine indica (Eleusine indica; Dose 15 g/ha): 5 (Level 5: growth control rate is above 85%) | Weeding effect in post-emergence stage, Abutilon theophrasti (Abutilon theophrasti; Dose 15 g/ha): 5 (Level 5: growth control rate is above 85%) | Weeding effect in post-emergence stage, Alopecurus japonicus (Alopecurus japonicus; Dose 15 g/ha): 5 (Level 5: growth control rate is above 85%) | Weeding effect in post-emergence stage, Echinochloa crusgalli (Echinochloa crusgalli; Dose 15 g/ha): 5 (Level 5: growth control rate is above 85%)

CC(O/N=C/c1cc(-n2c(=O)cc(C(F)(F)F)n(C)c2=O)c(F)cc1Cl)C(=O)OCCO (racemic) [Compound 228]
Weeding effect in post-emergence stage, Setaria viridis (Setaria viridis; Dose 15 g/ha): 5 (Level 5: growth control rate is above 85%) | Weeding effect in post-emergence stage, Digitaria sanguinalis (Digitaria sanguinalis; Dose 15 g/ha): 5 (Level 5: growth control rate is above 85%) | Weeding effect in post-emergence stage, Eleusine indica (Eleusine indica; Dose 15 g/ha): 5 (Level 5: growth control rate is above 85%) | Weeding effect in post-emergence stage, Abutilon theophrasti (Abutilon theophrasti; Dose 15 g/ha): 5 (Level 5: growth control rate is above 85%) | Weeding effect in post-emergence stage, Alopecurus japonicus (Alopecurus japonicus; Dose 15 g/ha): 5 (Level 5: growth control rate is above 85%) | Weeding effect in post-emergence stage, Echinochloa crusgalli (Echinochloa crusgalli; Dose 15 g/ha): 5 (Level 5: growth control rate is above 85%)

COC(=O)C(C)O/N=C/c1cc(-n2c(=S)cc(C(F)(F)F)n(C)c2=O)c(F)cc1Cl (racemic) [Compound 349]
Weeding effect in post-emergence stage, Setaria viridis (Setaria viridis; Dose 15 g/ha): 5 (Level 5: growth control rate is above 85%) | Weeding effect in post-emergence stage, Digitaria sanguinalis (Digitaria sanguinalis; Dose 15 g/ha): 5 (Level 5: growth control rate is above 85%) | Weeding effect in post-emergence stage, Eleusine indica (Eleusine indica; Dose 15 g/ha): 5 (Level 5: growth control rate is above 85%) | Weeding effect in post-emergence stage, Abutilon theophrasti (Abutilon theophrasti; Dose 15 g/ha): 5 (Level 5: growth control rate is above 85%) | Weeding effect in post-emergence stage, Alopecurus japonicus (Alopecurus japonicus; Dose 15 g/ha): 5 (Level 5: growth control rate is above 85%) | Weeding effect in post-emergence stage, Echinochloa crusgalli (Echinochloa crusgalli; Dose 15 g/ha): 5 (Level 5: growth control rate is above 85%)

COC(=O)C(C)O/N=C/c1cc(-n2c(=S)cc(C(F)(F)F)n(C)c2=S)c(F)cc1Cl (racemic) [Compound 351]
Weeding effect in post-emergence stage, Setaria viridis (Setaria viridis; Dose 60 g/ha): 5 (Level 5: growth control rate is above 85%) | Weeding effect in post-emergence stage, Digitaria sanguinalis (Digitaria sanguinalis; Dose 60 g/ha): 5 (Level 5: growth control rate is above 85%) | Weeding effect in post-emergence stage, Eleusine indica (Eleusine indica; Dose 60 g/ha): 5 (Level 5: growth control rate is above 85%) | Weeding effect in post-emergence stage, Abutilon theophrasti (Abutilon theophrasti; Dose 60 g/ha): 5 (Level 5: growth control rate is above 85%) | Weeding effect in post-emergence stage, Alopecurus japonicus (Alopecurus japonicus; Dose 60 g/ha): 5 (Level 5: growth control rate is above 85%) | Weeding effect in post-emergence stage, Echinochloa crusgalli (Echinochloa crusgalli; Dose 60 g/ha): 5 (Level 5: growth control rate is above 85%)

COC(=O)C(C)O/N=C/c1cc(-n2c(=S)cc(C(F)(F)F)n(C)c2=O)c(F)cc1Br (racemic) [Compound 388]
Weeding effect in post-emergence stage, Setaria viridis (level) (Setaria viridis; Dose 15 g/ha): 5 (Level 5: growth control rate is above 85%) | Weeding effect in post-emergence stage, Digitaria sanguinalis (level) (Digitaria sanguinalis; Dose 15 g/ha): 5 (Level 5: growth control rate is above 85%) | Weeding effect in post-emergence stage, Eleusine indica (level) (Eleusine indica; Dose 15 g/ha): 5 (Level 5: growth control rate is above 85%) | Weeding effect in post-emergence stage, Abutilon theophrasti (level) (Abutilon theophrasti; Dose 15 g/ha): 5 (Level 5: growth control rate is above 85%) | Weeding effect in post-emergence stage, Alopecurus japonicus (level) (Alopecurus japonicus; Dose 15 g/ha): 4 (Level 4: growth control rate is greater than or equal to 60% and less than 85%) | Weeding effect in post-emergence stage, Echinochloa crusgalli (level) (Echinochloa crusgalli; Dose 15 g/ha): 5 (Level 5: growth control rate is above 85%)

COC(=O)C(C)O/N=C/c1cc(-n2c(=S)cc(C(F)(F)F)n(C)c2=S)c(F)cc1C#N (racemic) [Compound 390]
Weeding effect in post-emergence stage, Setaria viridis (level) (Setaria viridis; Dose 15 g/ha): 5 (Level 5: growth control rate is above 85%) | Weeding effect in post-emergence stage, Digitaria sanguinalis (level) (Digitaria sanguinalis; Dose 15 g/ha): 5 (Level 5: growth control rate is above 85%) | Weeding effect in post-emergence stage, Eleusine indica (level) (Eleusine indica; Dose 15 g/ha): 5 (Level 5: growth control rate is above 85%) | Weeding effect in post-emergence stage, Abutilon theophrasti (level) (Abutilon theophrasti; Dose 15 g/ha): 5 (Level 5: growth control rate is above 85%) | Weeding effect in post-emergence stage, Alopecurus japonicus (level) (Alopecurus japonicus; Dose 15 g/ha): 5 (Level 5: growth control rate is above 85%) | Weeding effect in post-emergence stage, Echinochloa crusgalli (level) (Echinochloa crusgalli; Dose 15 g/ha): 5 (Level 5: growth control rate is above 85%)

COC(=O)C(C)O/N=C/c1cc(-n2c(=S)cc(C(F)(F)F)n(C)c2=S)c(F)cc1Br (racemic) [Compound 391]
Weeding effect in post-emergence stage, Setaria viridis (level) (Setaria viridis; Dose 60 g/ha): 5 (Level 5: growth control rate is above 85%) | Weeding effect in post-emergence stage, Digitaria sanguinalis (level) (Digitaria sanguinalis; Dose 60 g/ha): 5 (Level 5: growth control rate is above 85%) | Weeding effect in post-emergence stage, Eleusine indica (level) (Eleusine indica; Dose 60 g/ha): 5 (Level 5: growth control rate is above 85%) | Weeding effect in post-emergence stage, Abutilon theophrasti (level) (Abutilon theophrasti; Dose 60 g/ha): 5 (Level 5: growth control rate is above 85%) | Weeding effect in post-emergence stage, Alopecurus japonicus (level) (Alopecurus japonicus; Dose 60 g/ha): 5 (Level 5: growth control rate is above 85%) | Weeding effect in post-emergence stage, Echinochloa crusgalli (level) (Echinochloa crusgalli; Dose 60 g/ha): 5 (Level 5: growth control rate is above 85%)

COC(=O)C(C)O/N=C/c1cc(-n2c(=S)cc(C(F)(F)F)n(C)c2=S)c(F)cc1C(F)(F)F (racemic) [Compound 392]
Weeding effect in post-emergence stage, Setaria viridis (level) (Setaria viridis; Dose 60 g/ha): 5 (Level 5: growth control rate is above 85%) | Weeding effect in post-emergence stage, Digitaria sanguinalis (level) (Digitaria sanguinalis; Dose 60 g/ha): 5 (Level 5: growth control rate is above 85%) | Weeding effect in post-emergence stage, Eleusine indica (level) (Eleusine indica; Dose 60 g/ha): 5 (Level 5: growth control rate is above 85%) | Weeding effect in post-emergence stage, Abutilon theophrasti (level) (Abutilon theophrasti; Dose 60 g/ha): 5 (Level 5: growth control rate is above 85%) | Weeding effect in post-emergence stage, Alopecurus japonicus (level) (Alopecurus japonicus; Dose 60 g/ha): 5 (Level 5: growth control rate is above 85%) | Weeding effect in post-emergence stage, Echinochloa crusgalli (level) (Echinochloa crusgalli; Dose 60 g/ha): 5 (Level 5: growth control rate is above 85%)

COC(=O)C(C)O/N=C/c1cc(-n2c(=S)cc(C(F)(F)F)n(C)c2=S)c(F)cc1C#N (racemic) [Compound 393]
Weeding effect in post-emergence stage, Setaria viridis (level) (Setaria viridis; Dose 60 g/ha): 5 (Level 5: growth control rate is above 85%) | Weeding effect in post-emergence stage, Digitaria sanguinalis (level) (Digitaria sanguinalis; Dose 60 g/ha): 5 (Level 5: growth control rate is above 85%) | Weeding effect in post-emergence stage, Eleusine indica (level) (Eleusine indica; Dose 60 g/ha): 5 (Level 5: growth control rate is above 85%) | Weeding effect in post-emergence stage, Abutilon theophrasti (level) (Abutilon theophrasti; Dose 60 g/ha): 5 (Level 5: growth control rate is above 85%) | Weeding effect in post-emergence stage, Alopecurus japonicus (level) (Alopecurus japonicus; Dose 60 g/ha): 5 (Level 5: growth control rate is above 85%) | Weeding effect in post-emergence stage, Echinochloa crusgalli (level) (Echinochloa crusgalli; Dose 60 g/ha): 5 (Level 5: growth control rate is above 85%)

COC(=O)C(C)O/N=C/c1cc(-n2c(=O)cc(C(F)(F)F)n(C)c2=S)c(F)cc1Br (racemic) [Compound 394]
Weeding effect in post-emergence stage, Setaria viridis (level) (Setaria viridis; Dose 60 g/ha): 5 (Level 5: growth control rate is above 85%) | Weeding effect in post-emergence stage, Digitaria sanguinalis (level) (Digitaria sanguinalis; Dose 60 g/ha): 5 (Level 5: growth control rate is above 85%) | Weeding effect in post-emergence stage, Eleusine indica (level) (Eleusine indica; Dose 60 g/ha): 5 (Level 5: growth control rate is above 85%) | Weeding effect in post-emergence stage, Abutilon theophrasti (level) (Abutilon theophrasti; Dose 60 g/ha): 5 (Level 5: growth control rate is above 85%) | Weeding effect in post-emergence stage, Alopecurus japonicus (level) (Alopecurus japonicus; Dose 60 g/ha): 5 (Level 5: growth control rate is above 85%) | Weeding effect in post-emergence stage, Echinochloa crusgalli (level) (Echinochloa crusgalli; Dose 60 g/ha): 5 (Level 5: growth control rate is above 85%)

COC(=O)C(C)O/N=C/c1cc(-n2c(=O)cc(C(F)(F)F)n(C)c2=S)c(F)cc1C(F)(F)F (racemic) [Compound 395]
Weeding effect in post-emergence stage, Setaria viridis (level) (Setaria viridis; Dose 60 g/ha): 5 (Level 5: growth control rate is above 85%) | Weeding effect in post-emergence stage, Digitaria sanguinalis (level) (Digitaria sanguinalis; Dose 60 g/ha): 5 (Level 5: growth control rate is above 85%) | Weeding effect in post-emergence stage, Eleusine indica (level) (Eleusine indica; Dose 60 g/ha): 5 (Level 5: growth control rate is above 85%) | Weeding effect in post-emergence stage, Abutilon theophrasti (level) (Abutilon theophrasti; Dose 60 g/ha): 5 (Level 5: growth control rate is above 85%) | Weeding effect in post-emergence stage, Alopecurus japonicus (level) (Alopecurus japonicus; Dose 60 g/ha): 5 (Level 5: growth control rate is above 85%) | Weeding effect in post-emergence stage, Echinochloa crusgalli (level) (Echinochloa crusgalli; Dose 60 g/ha): 5 (Level 5: growth control rate is above 85%)
